Entries after “also recorded” stand apart in the source; their conditions may differ.
How the values were obtained:
[1] = tested on: T1, mushroom tyrosinase (EC 1.14.18.1); assay: Tyrosinase inhibition assay and kinetics (o-diphenolase activity, L-DOPA substrate); format: biochemical, Agaricus bisporus (mushroom); conditions: for Type of inhibition: Lineweaver-Burk and Dixon plots
T1 construct: 22 U of mushroom tyrosinase (EC 1.14.18.1)
Protocol: The assay mixture contained sodium phosphate buffer (50 mM; pH 6.8), 22 U of mushroom tyrosinase (EC 1.14.18.1; Sigma Chemical Co., St. Louis, USA), L-DOPA substrate (1 mM), and Compound 2 dissolved in DMSO. The final concentration of DMSO in the assay mixture was 0.5%. The o-diphenolase inhibitory activity of Compound 2 was first screened at a final concentration of 30 μM using Ultrospec 2100 pro spectrophotometer (Amersham Biosciences, UK).
The kinetic assays included a range of substrate (0.25-2.0 mM) and Compound 2 concentrations (0.25, 0.5, 1.0, 2.0 μM). The […] was first incubated with the […] for 15 min. at 25° C. followed by addition of substrate. The reaction was continuously monitored in the spectrophotometer and the enzyme velocity was measured from the linear portion of the curve (7). The kinetics data were analyzed by Grafit 7.0.3 software (Erithacus Software Ltd., Staines, UK) utilizing the Lineweaver Burk plot {1/v versus 1/[S]} and the Ki values were calculated using the Dixon plot {1/v versus [I]}.

Compound | fold more potent than kojic acid (by Ki) ([1]; Ki of kojic acid versus Ki of the compound) | Type of inhibition [1] | IC50 ([1]; o-diphenolase activity, L-DOPA substrate, 25° C., pH 6.8, read-out: IC50 (μM ± SEM)) | Ki ([1]; o-diphenolase activity, L-DOPA substrate, Dixon plot, 25° C., pH 6.8, read-out: Ki (μM ± SEM)) | melting point
NC(=S)N/N=C/c1ccc2[nH]ncc2c1 [Compound 2, 2-((1H-indazol-5-yl)methylene)hydrazinecarbothioamide] | 52 fold | competitive inhibitor; also recorded: competitive inhibition | 0.228 µM | 0.0843 µM | 258 to 262 °C
O=c1cc(CO)occ1O [Kojic acid, kojic acid, reference compound] |  | Competitive |  |  | 
